Data reported in ChEMBL document CHEMBL1127188, “Phenylphosphonate monoester analogs of cocaine. Potential haptens for the generation of catalytic antibodies” (Bioorg Med Chem Lett, 1993).

Species on record: Mus musculus
Experiment: Compound was tested for its ability to inhibit mAb (monoclonal antibody) binding to immobilized ova-10d; inhibited the binding of seven of nine mAbs to immobilized ova-10d, A - The IC50 of these seven mAb ranged from 15 to 350 uM
Format: functional, organism-based

With `COC(=O)C1C(OP(=O)(O)c2ccccc2)CC2CCC1N2C` (stereo unspecified) the IC50 was “A”.
